Reference: patent publication US20240067682A1, “PEPTIDE HAVING PLANT STEM CELL-INDUCING EFFECT AND PLANT PEST RESISTANCE-INDUCING EFFECT” (KYOTO PREFECTURAL PUBLIC UNIVERSITY CORPORATION, priority 2020, published 2024)

How the values were obtained:
[1] = test system: Pseudomonas syringae pv tomato DC3000; test: Disease tolerance test with CAP6 peptide: DC3000 infection of sprayed Arabidopsis thaliana leaves; type: in vivo; conditions: 60 nM CAP6 peptide/0.02% Silwet L-77 sprayed 48 hours before infection; counted one day after infection
Protocol: Multiple types (76 types) of CAP proteins derived from Schlechtendalia chinensis, Caloptilia cecidophora, Borboryctis euryae, Caloptilia ryukyuensis, Rhus javanica, and Arabidopsis thaliana were aligned. From the consensus sequence (FIG. 9), FTQIVW (SEQ ID NO: 21) was determined (hereinafter referred to as “CAP6 peptide”). Then, Arabidopsis thaliana leaves were sprayed with 0.02% Silwet L-77 (Control), 60 nM CAP peptide/0.02% Silwet L-77, or 60 nM CAP6 peptide/0.02% Silwet L-77, and 48 hours later, infected with Pseudomonas syringae pv tomato DC3000 (DC3000) with an OD600 of 0.2×10^−3. One day later, DC3000 obtained from leaf fragments cut into 5-mm-diameter circles was diluted and spotted on LB medium containing kanamycin. 24 hours later, the number of bacteria per unit area was counted.

[2] = test system: wild-type Arabidopsis thaliana seeds; test: Osmotic and drought tolerance: growth of peptide-immersed seeds on excess mannitol- or sorbitol-containing medium; type: in vivo
Protocol: Next, wild-type Arabidopsis thaliana seeds were immersed in water (Control) or 600 nM CAP peptide for 5 minutes and then grown on an excess mannitol-containing medium. Further, wild-type Arabidopsis thaliana seeds were immersed in water (Control) or 600 nM CAP peptide overnight, and then grown on an excess sorbitol-containing medium.

[3] = test system: Rorippa aquatica; test: Agrobacterium transformation of Rorippa aquatica in the presence of CAP peptide; type: in vivo; conditions: 1 μM CAP peptide mixed with Agrobacterium carrying GFP-TUB6 plasmid
Protocol: Agrobacterium introduced with a plasmid expressing GFP-TUB6 protein was mixed with CAP peptide to final concentrations of 50 nM, 1 μM, and 10 μM, and transformed into Rorippa aquatica.

[4] = test system: Pseudomonas syringae pv tomato DC3000; test: DC3000 inoculation of Brassica rapa leaves sprayed with 60 nM CAP peptide; type: in vivo
Protocol: Brassica rapa leaves were sprayed with water or a 60 nM CAP peptide solution in advance, and one day later, inoculated with plant pathogen Pseudomonas syringae pv tomato DC3000 (DC3000). 2 days after infection, DC3000 obtained from leaf fragments cut into 4-mm-diameter circles was diluted, spotted on LB medium containing kanamycin, and incubated at 28° C. for 24 hours.

[5] = test system: genes related to disease resistance; test: RNA-seq gene expression after 48 hours immersion in CAP peptide; type: in vivo, Arabidopsis thaliana; conditions: 600 nM, immersion 48 hours, vs water
Protocol: RNA of Arabidopsis thaliana immersed in water or a 600 nM CAP peptide solution for 48 hours was extracted, and gene expression was compared by RNA-seq analysis. Network analysis was then performed.

[6] = test system: Cherry tomato Sun Cherry seedlings; test: Growth promotion of cherry tomato Sun Cherry seedlings; type: in vivo; conditions: 1 μM CAP peptide sprayed twice (Jul. 21 and July 28); t-test p<0.05
Protocol: Cherry tomato Sun Cherry seedlings were purchased, sprayed with 1 μM CAP peptide on Jul. 21, 2021, and then grown in planters in an alley. The second 1 μM CAP peptide treatment was performed on July 28.

[7] = test system: Pseudomonas syringae DC3000; test: DC3000 inoculation of Arabidopsis thaliana leaves applied with 60 nM CAP peptide; type: in vivo
Protocol: Arabidopsis thaliana leaves applied with water or 60 nM CAP peptide were inoculated with Pseudomonas syringae DC3000.

[8] = test system: Pseudomonas syringae pv tomato DC3000; test: DC3000 infection of Arabidopsis thaliana leaves sprayed with 600 nM CAP peptide, bacterial count; type: in vivo; conditions: leaves sprayed with 600 nM CAP peptide/0.02% Silwet L-77 24 hours before infection; counted 2 days after infection
Protocol: Next, Arabidopsis thaliana leaves were sprayed with water/0.02% Silwet L-77 (Control) or 600 nM CAP peptide/0.02% Silwet L-77, and 24 hours later, infected with Pseudomonas syringae pv tomato DC3000 (DC3000) with an OD600 of 0.2×10^−3. 2 days later, DC3000 obtained from leaf fragments cut into 4-mm-diameter circles was diluted and spotted on LB medium containing kanamycin. After incubation at 28° C. for 24 hours, the number of bacteria per unit area was counted.

[9] = test system: Arabidopsis thaliana seeds; test: Germination of Arabidopsis thaliana seeds harvested 10 years before; type: in vivo; conditions: seeds immersed in 1, 10 or 100 μM CAP peptide for 2 hours; measured 2 weeks after sowing
Protocol: Arabidopsis thaliana seeds harvested 10 years before and not naturally germinated were immersed in 0, 1, 10, or 100 μM CAP peptide for 2 hours and then sown. The germination rate was measured 2 weeks later.

[10] = test system: Arabidopsis thaliana expressing stem cell marker PLT1-GFP; test: Stem cell induction in Arabidopsis thaliana roots expressing stem cell marker PLT1-GFP (confocal imaging); type: in vivo; conditions: 600 nM peptide aqueous solution, immersion 2 days
Protocol: Arabidopsis thaliana roots were treated with CAP peptide ([…]). Arabidopsis thaliana expressing stem cell marker PLT1-GFP was immersed in water or a 600 nM peptide aqueous solution for 2 days, and GFP fluorescent images and bright field images were obtained with a confocal laser microscope.

[11] = test system: genes related to freezing tolerance and drought tolerance; test: RNA-seq gene expression after 4 hours immersion in CAP peptide; type: in vivo, Arabidopsis thaliana; conditions: 600 nM, immersion 4 hours, vs water
Protocol: RNA of Arabidopsis thaliana immersed in water or a 600 nM CAP peptide solution for 4 hours was extracted, and gene expression was compared by RNA-seq analysis. Network analysis was then performed on genes with increased expression.

FTQIVW (consensus sequence of CAP) [CAP6 peptide]
disease tolerance effect [1]: a remarkable effect was obtained

TQVVWKSTTNIGVGILIVNGTV (partial peptide of CAP) [CAP peptide, synthetic peptide from the conserved region of insect CAP (cysteine-rich secretory protein, antigen 5, and pathogenesis-related 1)]
root extension on excess mannitol-containing medium vs control ([2]; 600 nM, 5 minutes immersion, high-osmotic pressure conditions): extended more
root extension on excess sorbitol-containing medium vs control ([2]; 600 nM, overnight immersion, dry conditions): extended more
growth on excess mannitol-containing medium, mean value ([2]; seeds immersed in 600 nM CAP peptide for 5 minutes, high-osmotic pressure conditions, FIG. 3 upper): 11.69 (S.D.=1.55)
growth on excess sorbitol-containing medium, mean value ([2]; seeds immersed in 600 nM CAP peptide overnight, dry conditions, FIG. 3 lower): 7.71 (S.D.=1.39)
transformation efficiency [3]: high efficiency transformation
freshness after pathogen treatment vs water treatment ([4]; 60 nM CAP peptide sprayed one day before inoculation): freshness was maintained for a longer period of time
inhibition of bacterial growth compared with water treatment ([4]; 60 nM CAP peptide, 2 days after pathogen inoculation): ≥ 1000 times
increase in expression of genes related to disease resistance [5]: 2 to 3 factor
effect of promoting stem extension compared with CAP-untreated group [6]: significantly confirmed
growth of the pathogen ([7]; 4 days after infection): significantly inhibited
plant body growth vs water treatment ([7]; 13 days after infection): grew much larger
seed yield vs water treatment ([7]; 13 days after pathogen infection): yielded more seeds
growth of bacteria after infection [8]: suppressed the growth of bacteria
germination rate compared with gibberellin treatment [9]: much higher germination rate
transformation of differentiated cells into stem cells ([10]; PLT1-GFP marker): differentiated cells were transformed into stem cells
induction of gall-like structure ([10]; roots): induced a gall-like structure
increase in expression of genes related to freezing tolerance and drought tolerance [11]: ≥ 2 factor
